Measurements reported in US8952024B2, “Herbicidal pyrimidone derivatives” (E I du Pont de Nemours and Company, priority 2009, dated 2015).

How the values were obtained:
Type in all cases: in vivo
[1] = system: velvetleaf (Abutilon theophrasti); assay: Test A pre-/postemergence plant response; conditions: for Velvetleaf plant response rating: visual injury, 0 to 100 scale (0 no effect, 100 complete control), approx. ten days
Source text: (§1) Seeds of barnyardgrass (Echinochloa crus-galli), large crabgrass (Digitaria sanguinalis), giant foxtail (Setaria faberii), morningglory (Ipomoea spp.), pigweed (Amaranthus retroflexus), velvetleaf (Abutilon theophrasti), wheat (Triticum aestivum) and corn (Zea mays) were planted into a blend of loam soil and sand and treated preemergence with a directed soil spray using test chemicals formulated in a non-phytotoxic solvent mixture which included a surfactant. At the same time these species were also treated with postemergence applications of test compounds formulated in the same manner.
(§2) Plants ranged in height from two to ten cm and were in the one- to two-leaf stage for the postemergence treatment. Treated plants and untreated controls were maintained in a greenhouse for approximately ten days, after which time all treated plants were compared to untreated controls and visually evaluated for injury. Plant response ratings, summarized in Table A, are based on a 0 to 100 scale where 0 is no effect and 100 is complete control. A dash (-) response means no test result.

[2] = system: wheat (Triticum aestivum); assay: Test A pre-/postemergence plant response; conditions: for Wheat plant response rating: visual injury, 0 to 100 scale (0 no effect, 100 complete control), approx. ten days
Source text: as §1, §2

[3] = system: large crabgrass (Digitaria sanguinalis); assay: Test A pre-/postemergence plant response; conditions: for Crabgrass, Large plant response rating: visual injury, 0 to 100 scale (0 no effect, 100 complete control), approx. ten days
Source text: as §1, §2

[4] = system: pigweed (Amaranthus retroflexus); assay: Test A pre-/postemergence plant response; conditions: for Pigweed plant response rating: visual injury, 0 to 100 scale (0 no effect, 100 complete control), approx. ten days
Source text: as §1, §2

[5] = system: giant foxtail (Setaria faberii); assay: Test A pre-/postemergence plant response; conditions: for Foxtail, Giant plant response rating: visual injury, 0 to 100 scale (0 no effect, 100 complete control), approx. ten days
Source text: as §1, §2

[6] = system: morningglory (Ipomoea spp.); assay: Test A pre-/postemergence plant response; conditions: for Morningglory plant response rating: visual injury, 0 to 100 scale (0 no effect, 100 complete control), approx. ten days
Source text: as §1, §2

[7] = system: barnyardgrass (Echinochloa crus-galli); assay: Test A pre-/postemergence plant response; conditions: for Barnyardgrass plant response rating: visual injury, 0 to 100 scale (0 no effect, 100 complete control), approx. ten days
Source text: as §1, §2

[8] = system: corn (Zea mays); assay: Test A pre-/postemergence plant response; conditions: for Corn plant response rating: visual injury, 0 to 100 scale (0 no effect, 100 complete control), approx. ten days
Source text: as §1, §2

[9] = system: umbrella sedge (Cyperus difformis); assay: Test B flooded paddy test; conditions: for Plant response rating, Sedge, Umbrella: Flood (flooded paddy test), 125 g ai/ha, scale 0 to 100, 0 is no effect, 100 is complete control, 13 to 15 days; for Sedge, Umbrella plant response rating: Flood, 31 g ai/ha, scale 0 to 100 (0 no effect, 100 complete control)
Summary of the method: (§3)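 Plants were grown to the 2-leaf stage, then pots were flooded to 3 cm above the soil and compounds were applied directly into the paddy water. That depth was held throughout. After 13 to 15 days in a greenhouse, injury was visually rated against controls on a 0–100 scale.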

[10] = system: ducksalad (Heteranthera limosa); assay: Test B flooded paddy test; conditions: for Plant response rating, Ducksalad: Flood (flooded paddy test), 125 g ai/ha, scale 0 to 100, 0 is no effect, 100 is complete control, 13 to 15 days; for Ducksalad plant response rating: Flood, 31 g ai/ha, scale 0 to 100 (0 no effect, 100 complete control)
Summary of the method: as §3

[11] = system: rice (Oryza sativa); assay: Test B flooded paddy test; conditions: for Plant response rating, Rice: Flood (flooded paddy test), 125 g ai/ha, scale 0 to 100, 0 is no effect, 100 is complete control, 13 to 15 days; for Rice plant response rating: Flood, 31 g ai/ha, scale 0 to 100 (0 no effect, 100 complete control)
Summary of the method: as §3

[12] = system: barnyardgrass (Echinochloa crus-galli); assay: Test B flooded paddy test; conditions: for Plant response rating, Barnyardgrass: Flood (flooded paddy test), 125 g ai/ha, scale 0 to 100, 0 is no effect, 100 is complete control, 13 to 15 days; for Barnyardgrass plant response rating: Flood, 31 g ai/ha, scale 0 to 100 (0 no effect, 100 complete control)
Summary of the method: as §3

[13] = Postemergence, 125 g ai/ha, 0 to 100 scale where 0 is no effect and 100 is complete control
[14] = Preemergence, 125 g ai/ha, 0 to 100 scale, 0 = no effect, 100 = complete control
[15] = Preemergence, 500 g ai/ha, 0 to 100 scale, 0 = no effect, 100 = complete control

SMILES | Plant response rating, Velvetleaf [1, 13] | Velvetleaf plant response rating ([1]; Postemergence, 500 g ai/ha) | Plant response rating, Velvetleaf [1, 14] | Plant response rating, Velvetleaf [1, 15] | Plant response rating, Wheat [2, 13] | Wheat plant response rating ([2]; Postemergence, 500 g ai/ha) | Plant response rating, Wheat [2, 14] | Plant response rating, Wheat [2, 15] | Plant response rating, Crabgrass, Large [3, 13] | Crabgrass, Large plant response rating ([3]; Postemergence, 500 g ai/ha) | Plant response rating, Crabgrass, Large [3, 14] | Plant response rating, Crabgrass, Large [3, 15] | Plant response rating, Pigweed [4, 13] | Pigweed plant response rating ([4]; Postemergence, 500 g ai/ha) | Plant response rating, Pigweed [4, 14] | Plant response rating, Pigweed [4, 15] | Plant response rating, Foxtail, Giant [5, 13] | Foxtail, Giant plant response rating ([5]; Postemergence, 500 g ai/ha) | Plant response rating, Foxtail, Giant [5, 14] | Plant response rating, Foxtail, Giant [5, 15] | further results
Cc1cc(F)ccc1-n1c(-c2cccc(Br)c2)ncc(C(=O)C2=C(O)CCCC2=O)c1=O [Compound 166] | 100 | 100 | 40 | 100 | 0 | 0 | 0 | 0 | 40 | 90 | 10 | 70 | 70 | 100 | 0 | 40 | 60 | 90 | 0 | 20 | Plant response rating, Morningglory [6, 13]: 100; Plant response rating, Morningglory [6, 14]: 0; Plant response rating, Morningglory [6, 15]: 0; Plant response rating, Barnyardgrass [7, 13]: 80; Barnyardgrass plant response rating ([7]; Postemergence, 500 g ai/ha): 100; Plant response rating, Barnyardgrass [7, 14]: 0; Plant response rating, Barnyardgrass [7, 15]: 20; Plant response rating, Corn [8, 13]: 30; Corn plant response rating ([8]; Postemergence, 500 g ai/ha): 40; Plant response rating, Corn [8, 14]: 0; Plant response rating, Corn [8, 15]: 0; Plant response rating, Sedge, Umbrella [9]: 70; Sedge, Umbrella plant response rating [9]: 50; Plant response rating, Ducksalad [10]: 60; Ducksalad plant response rating [10]: 0; Plant response rating, Rice [11]: 0; Rice plant response rating [11]: 0; Plant response rating, Barnyardgrass [12]: 20; Barnyardgrass plant response rating [12]: 0
COCCOCCn1c(-c2cc(F)cc(F)c2)ncc(C(=O)C2=C(O)CCCC2=O)c1=O [Compound 171] | 100 | 100 | 80 | 100 | 20 | 50 | 20 | 40 | 60 | 90 | 70 | 100 | 100 | 100 | 50 | 80 | 60 | 90 | 30 | 80 | Plant response rating, Morningglory [6, 13]: 100; Morningglory plant response rating ([6]; Postemergence, 500 g ai/ha): 100; Plant response rating, Morningglory [6, 14]: 0; Plant response rating, Morningglory [6, 15]: 60; Plant response rating, Barnyardgrass [7, 13]: 50; Barnyardgrass plant response rating ([7]; Postemergence, 500 g ai/ha): 90; Plant response rating, Barnyardgrass [7, 14]: 20; Plant response rating, Barnyardgrass [7, 15]: 70; Plant response rating, Corn [8, 13]: 30; Corn plant response rating ([8]; Postemergence, 500 g ai/ha): 40; Plant response rating, Corn [8, 14]: 0; Plant response rating, Corn [8, 15]: 20; Plant response rating, Sedge, Umbrella [9]: 80; Sedge, Umbrella plant response rating [9]: 70; Plant response rating, Ducksalad [10]: 70; Ducksalad plant response rating [10]: 40; Plant response rating, Rice [11]: 0; Rice plant response rating [11]: 0; Plant response rating, Barnyardgrass [12]: 20; Barnyardgrass plant response rating [12]: 0
CCc1ccc(-n2c(-c3cccc(Cl)c3)ncc(C(=O)C3=C(O)CCCC3=O)c2=O)cc1 [Compound 174] | 100 | 100 | 20 | 70 | 0 | 0 | 0 | 0 | 70 | 90 | 20 | 60 | 100 | 100 | 30 | 90 | 20 | 60 | 0 | 40 | Plant response rating, Morningglory [6, 13]: 30; Morningglory plant response rating ([6]; Postemergence, 500 g ai/ha): 60; Plant response rating, Morningglory [6, 14]: 0; Plant response rating, Morningglory [6, 15]: 0; Plant response rating, Barnyardgrass [7, 13]: 90; Barnyardgrass plant response rating ([7]; Postemergence, 500 g ai/ha): 100; Plant response rating, Barnyardgrass [7, 14]: 0; Plant response rating, Barnyardgrass [7, 15]: 40; Plant response rating, Corn [8, 13]: 10; Corn plant response rating ([8]; Postemergence, 500 g ai/ha): 20; Plant response rating, Corn [8, 14]: 10; Plant response rating, Corn [8, 15]: 20; Plant response rating, Sedge, Umbrella [9]: 95; Sedge, Umbrella plant response rating [9]: 85; Plant response rating, Ducksalad [10]: 95; Ducksalad plant response rating [10]: 80; Plant response rating, Rice [11]: 0; Rice plant response rating [11]: 0; Plant response rating, Barnyardgrass [12]: 0; Barnyardgrass plant response rating [12]: 0
CCc1ccc(-n2c(-c3cccc(Br)c3)ncc(C(=O)C3=C(O)CCCC3=O)c2=O)cc1 [Compound 177] | 90 | 100 | 10 | 40 | 0 | 0 | 0 | 0 | 30 | 70 | 0 | 10 | 100 | 100 | 0 | 50 | 0 | 40 | 0 | 20 | Plant response rating, Morningglory [6, 13]: 0; Morningglory plant response rating ([6]; Postemergence, 500 g ai/ha): 10; Plant response rating, Morningglory [6, 14]: 0; Plant response rating, Barnyardgrass [7, 13]: 80; Barnyardgrass plant response rating ([7]; Postemergence, 500 g ai/ha): 100; Plant response rating, Barnyardgrass [7, 14]: 0; Plant response rating, Barnyardgrass [7, 15]: 10; Plant response rating, Corn [8, 13]: 0; Corn plant response rating ([8]; Postemergence, 500 g ai/ha): 0; Plant response rating, Corn [8, 14]: 0; Plant response rating, Corn [8, 15]: 20; Plant response rating, Sedge, Umbrella [9]: 75; Sedge, Umbrella plant response rating [9]: 60; Plant response rating, Ducksalad [10]: 70; Ducksalad plant response rating [10]: 30; Plant response rating, Rice [11]: 20; Rice plant response rating [11]: 15; Plant response rating, Barnyardgrass [12]: 15; Barnyardgrass plant response rating [12]: 0
